# Experimental data from patent US10106505B2, “Composition and methods for modulating a kinase cascade” (Athenex, Inc., priority 2012, dated 2018).
# Entries after “also recorded” stand apart in the source; their conditions may differ. Where two headings read alike, the source gives them in different places.
# Experiments:
# aggressive brain tumors = test: Mice with aggressive brain tumors (mouse model of malignant glioma); format: in vivo
# Procedure: (§1) Compound 1 is a synthetic, orally bioavailable, novel small molecule microtubule polymerization inhibitor with very high CNS penetration. The efficacy of compound 1 as a novel anti-cancer agent is tested directly using mouse model of malignant glioma. Compound 1 is an orally administered tubulin polymerization inhibitor that binds to a novel site on heterodimeric tubulin, and to a novel conformation of the dimer. Compound 1 can inhibit Src signaling in tumors. Compound 1 has been evaluated in various brain tumor cell lines. […] When administered orally to mice at a dose of 10 mg/kg, the ratio of drug levels in the brain compared to plasma levels was 0.76, indicating excellent blood brain barrier penetration.
# (§2) Compound 1 was evaluated in various human and mouse brain tumor cells derived from glioblastoma multiforme, astrocytoma and medulloblastoma. See, e.g., US2011/0281872. […] When administered to mice compound 1 penetrated the brain by 76%, thereby successfully addressing the first major challenge in brain cancer drug discovery. Drugs which are used to treat brain tumors often penetrate only 20% or less.
# [1] = system: various brain tumor cell lines (glioblastoma multiforme, astrocytoma, medulloblastoma); test: Proliferation of brain tumor cell lines; format: cell-based, human and mouse
# Procedure: as §1, §2
# [2] = Brain penetration after oral administration to mice; format: in vivo; conditions: mouse, 10 mg/kg
# Procedure: as §1, §2
# [3] = system: human colon cancer cells (HT29); test: Src substrate phosphorylation in HT29 cells; format: cell-based; conditions: in good correlation with growth inhibitory effects
# Description: (§3) Compounds of the invention may be Src signaling inhibitors that bind in the Src peptide substrate site. The activity of various compounds of the invention has been studied in c-Src (527F, constitutively active and transforming) transformed NIH3T3 cells and in human colon cancer cells (HT29).
# GL261 glioma = test: Orthotropic GL261 glioma model in immune-competent, syngeneic C57BL/6 mice; format: in vivo
# Procedure: (§4) Compound 1 was also evaluated in the orthotropic GL261 glioma model in immune-competent, syngeneic C57BL/6 mice. Mice implanted intracerebrally with 1×1^05 GL261 cells treated with vehicle alone (saline) have a median survival time (MeST) of 21 days (range 18-28). Mice treated by oral compound 1 (30 mg/kg, b.i.d.) have a MeST of 30.5 days ranging 23-32 days. In contrast, when compound 1 is given orally at (30 mg/kg, s.i.d.) the MeST increases to over 120 days, with more than 60% of the treatment group still alive 12 months later (p<0.0001). […] Further experiments were performed using a SCID version of C57BL/6 mice (B6.CB17-Prkd^cscid/SzJ), a mouse model of B6 background, but is immune-compromised.
# When given as a single dose per day (s.i.d.) compound 1 led to complete tumor regression in up to 60% of treated mice without further progression. […] This magnitude of anti-tumor effect was not observed in SCID models leading to the possibility that compound 1 may be involved in an anti-tumor immune response.
# When given single dose per day (s.i.d.) compound 1 led to complete tumor regression in up to 60% of treated mice without further progression.
# [4] = system: c-Src (527F, constitutively active and transforming) transformed NIH3T3 cells; test: Src substrate phosphorylation in c-Src transformed NIH3T3 cells; format: cell-based; conditions: c-Src (527F) transformed NIH3T3 cells; in good correlation with growth inhibitory effects
# Description: as §3
# [5] = system: GL261 intracerebral tumors; test: GL261 intracerebral tumors in immune-compromised SCID C57BL/6 mice; format: in vivo, SCID version of C57BL/6 mice (B6.CB17-Prkd^cscid/SzJ)
# Procedure: as §4
# survivin = test: Additional molecular studies on survivin
# [6] = mice with aggressive brain tumors
# [7] = oral 30 mg/kg, b.i.d., C57BL/6, intracerebral GL261
# [8] = immune-compromised SCID mice bearing GL261 intracerebral tumors
smiles,measurement,setting,value
"Cn1nnc2c(C(N)=O)ncn2c1=O [Temodar, Temozolamide, reference compound]",rate of tumor growth,aggressive brain tumors; [6],only slows the growth rate of the tumors
same,complete tumor regression,"aggressive brain tumors; mice with aggressive brain tumors, comparison drug",does not cause complete tumor regression
"O=C(Cc1ccc(-c2ccc(N3CCOCC3)cc2)cn1)NCc1cccc(F)c1 [compound 1, N-(3-fluorobenzyl)-2-(5-(4-morpholinophenyl)pyridin-2-yl)acetamide]",growth of brain tumor cells,"[1]; human and mouse brain tumor cells derived from glioblastoma multiforme, astrocytoma and medulloblastoma",potently inhibited the growth
same,GI50,"[1]; various brain tumor cell lines, in all cases, read-out: GI50 (inhibition of proliferation)",< 55 nM
same,Kp,"[2]; brain (relative to plasma), mice, read-out: ratio of drug levels in the brain compared to plasma levels",0.76
same,Kp,"[2]; brain, administered to mice, read-out: brain penetration",0.76
same,phosphorylation level of known Src protein substrates,[3],reduce the phosphorylation level of known Src protein substrates in a dose-dependent fashion
same,drug treated mice with complete tumor regression and no reoccurrence within normal full life span,aggressive brain tumors; [6],up to 60%
same,rate of tumor growth,aggressive brain tumors; [6],very significantly slows the rate of tumor growth
same,brain edema,aggressive brain tumors; versus placebo or Temodar treated mice,much less brain edema
same,second GL261 tumor implant challenge,"GL261 glioma; ""cured"" / long term survivor immune-competent C57BL/6 mice",rejected a second GL261 tumor implant challenge; also recorded: rejection of a second tumor
same,median survival time (MeST),GL261 glioma; [7],30.5 days
same,survival time range,GL261 glioma; [7],23 to 32 days
same,median survival time (MeST),"GL261 glioma; oral 30 mg/kg, s.i.d., C57BL/6, intracerebral GL261",over 120 days
same,treatment group still alive 12 months later,"GL261 glioma; oral 30 mg/kg, s.i.d., p<0.0001",more than 60%
same,growth rate of intracerebral GL261 glioma,"GL261 glioma; relative to control groups, five independent studies",slows the growth rate
same,treated mice with complete tumor regression without further progression,GL261 glioma; single dose per day (s.i.d.),up to 60%
same,phosphorylation level of known Src protein substrates,[4],reduce the phosphorylation level of known Src protein substrates in a dose-dependent fashion
same,tumor outcome after drug was discontinued (observed by MRI),[5]; SCID mice surviving greater than 45 days,all proceeded to develop lethal GL261 gliomas
same,median survival time (MeST),[5]; [8],40 days
same,survival time range,[5]; [8],29 to 75 days
same,expression and localization of intracellular survivin,survivin,increased expression and altered the localization of intracellular survivin
